pIC50: −log10 of the molar value. Counter-ions that a name gives are not always drawn.
How the values were obtained:
[1] = target: T1, human endothelial constitutive NOS (hecNOS) (Homo sapiens, UniProt P29474); assay: Citrulline assay for nitric oxide synthase, hecNOS; format: biochemical; conditions: averages across all experiments and all lots; 30 μM L-arginine
T1 construct: made in house; host or cells: Sf9 insect cells, baculovirus vector
Text: Nitric oxide synthase (NOS) activity can be measured by monitoring the conversion of L-[2,3-^3H]-arginine to L-[2,3-^3H]-citrulline (Bredt and Snyder, Proc. Natl. Acad. Sci. U.S.A., 87, 682-685, 1990 and Moore et al, J. Med. Chem., 39, 669-672, 1996). Human inducible NOS (hiNOS), human endothelial constitutive_NOS (hecNOS) and human neuronal constitutive NOS (hncNOS) are each cloned from RNA extracted from human tissue. The cDNA for human inducible NOS (hiNOS) is isolated from a λcDNA library made from RNA extracted from a colon sample from a patient with ulcerative colitis. The cDNA for human endothelial constitutive NOS (hecNOS) is isolated from a λcDNA library made from RNA extracted from human umbilical vein endothelial cells (HUVEC) and the cDNA for human neuronal constitutive NOS (hncNOS) is isolated from a λcDNA library made from RNA extracted from human cerebellum obtained from a cadaver. The recombinant enzymes are expressed in Sf9 insect cells using a baculovirus vector (Rodi et al, in The Biology of Nitric Oxide, Pt. 4: Enzymology, Biochemistry and Immunology; Moncada, S., Feelisch, M., Busse, R., Higgs, E., Eds.; Portland Press Ltd.: London, 1995; pp 447-450). […] After mixing the resin is allowed to settle and L-[2,3-^3H]-Citrulline formation is determined by counting aliquots of the supernatant with a liquid scintillation counter. […]

i-NOS = i-NOS (Homo sapiens, UniProt P35228); assay: i-NOS inhibition, comparison with NIL amides
i-NOS, sequence (P35228 whole entry): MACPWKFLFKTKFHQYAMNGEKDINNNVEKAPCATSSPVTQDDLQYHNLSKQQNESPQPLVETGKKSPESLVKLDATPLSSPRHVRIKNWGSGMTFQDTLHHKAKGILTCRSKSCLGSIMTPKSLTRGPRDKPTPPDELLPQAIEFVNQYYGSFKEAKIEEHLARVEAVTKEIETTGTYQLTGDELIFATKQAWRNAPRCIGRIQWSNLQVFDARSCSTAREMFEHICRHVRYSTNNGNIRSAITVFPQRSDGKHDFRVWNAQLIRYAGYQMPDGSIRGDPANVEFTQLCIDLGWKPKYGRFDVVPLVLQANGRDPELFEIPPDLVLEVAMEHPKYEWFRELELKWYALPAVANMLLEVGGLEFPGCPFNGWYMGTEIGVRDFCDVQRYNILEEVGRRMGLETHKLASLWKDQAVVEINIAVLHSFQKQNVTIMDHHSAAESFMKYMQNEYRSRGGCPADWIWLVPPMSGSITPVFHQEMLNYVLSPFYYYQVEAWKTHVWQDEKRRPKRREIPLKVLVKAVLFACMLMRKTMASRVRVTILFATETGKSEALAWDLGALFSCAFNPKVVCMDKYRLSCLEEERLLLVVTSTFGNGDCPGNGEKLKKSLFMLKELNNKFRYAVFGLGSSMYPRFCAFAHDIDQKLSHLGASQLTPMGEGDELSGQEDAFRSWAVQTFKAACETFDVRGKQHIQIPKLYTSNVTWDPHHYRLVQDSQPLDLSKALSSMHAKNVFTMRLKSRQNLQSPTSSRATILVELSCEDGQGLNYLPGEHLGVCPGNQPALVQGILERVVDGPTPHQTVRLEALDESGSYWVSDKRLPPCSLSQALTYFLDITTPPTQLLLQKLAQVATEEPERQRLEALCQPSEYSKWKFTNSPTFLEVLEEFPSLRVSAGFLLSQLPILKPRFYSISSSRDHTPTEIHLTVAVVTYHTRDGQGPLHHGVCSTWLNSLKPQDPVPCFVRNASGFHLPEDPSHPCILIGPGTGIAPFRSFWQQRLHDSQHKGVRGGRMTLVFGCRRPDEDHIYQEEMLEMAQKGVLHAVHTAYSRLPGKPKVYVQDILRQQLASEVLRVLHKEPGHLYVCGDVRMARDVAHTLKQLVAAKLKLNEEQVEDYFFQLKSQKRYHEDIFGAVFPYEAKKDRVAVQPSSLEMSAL

[2] = Clinical study: tolerability, FEV1, blood pressure, heart rate, laboratory parameters; format: in vivo, human; conditions: single oral dose
Protocol: (§1) A single center study was performed at the National Heart and Lung Institute (NHLI) Clinical Studies Unit in London, UK. The clinical protocol was submitted and accepted by the Ethics Committee of the Royal Brompton Hospital Trust, and the study was carried out according to Good Clinical Practice standards. Each subject provided written informed consent.
(§2) Twenty-four, adult, healthy volunteers and 24 patients with mild asthma participated in this study. All subjects were lifelong non-smokers. Asthma patients (n=24) had mild asthma according to American Thoracic Society Criteria, with medication on an as required basis with inhaled albuterol only. […] All asthmatic patients had baseline exhaled breath NO levels of >15 parts per billion (ppb). Healthy control (n=24) subjects were matched for age and sex, and had no clinically significant disease. Healthy subjects were required to have baseline exhaled NO levels between 4 and 9 ppb.
(§3) The study included 2 panels of healthy volunteers and asthmatic patients who received in a double-blind, randomized manner, a single dose of oral compound NN or placebo. The study was carried out in two phases according to the dose of compound NN under investigation. The first panel consisted of patients with mild-to-moderate asthma (n=12) and healthy subjects (n=12) who received single doses of 20 mg of compound NN and placebo, while the second panel of mild-to-moderate asthmatics (n=12) and healthy subjects (n=12) received single doses of 200 mg of compound NN and placebo. No patient or subject participated in both panels of this study. Evaluation of the first panel was completed before moving on to the second panel. The study evaluated the tolerability and pharmacokinetics of orally-administered compound NN and monitored levels of exhaled breath NO.
Forced expiratory volume in 1 sec (FEV1) and heart rate data had no significant deviations from normality using the Shapiro-Wilks test, therefore parametric statistical methods were used, and the significance of the change from baseline was tested using a paired […]. […]

[3] = test system: exhaled breath nitric oxide (NO); assay: Clinical study: exhaled breath NO after single oral dose; format: in vivo, human
Protocol: as §1, §2, §3
Measurement of exhaled NO: Exhaled NO was measured using a chemoluminescence analyzer (Logan 2000, Rochester, UK) and methods in accordance with International Guidelines. The analyser was calibrated daily using a certified NO mixture of 50 to 200 ppb (BOC Special gases, Guildford, UK) and ambient air NO recordings made on an hourly basis. Subjects were asked to refrain from strenuous exercise before any measurement. Each subject was seated for at least 5 minutes before any measurement was taken and remained seated throughout the procedure. […] Two successive recordings were taken, and the average value was calculated.
Statistical methods for clinical data: Exhaled NO data, including change from baseline and the percentage change, were tested for normality using the Shapiro-Wilks test. […] The area under the curve (AUC) for the change from baseline and the percentage change, and the differences between active and placebo were calculated. […]

[4] = healthy volunteers and asthmatics

With `CC(=N)NCCCC[C@H](N)C(=O)Nc1nnn[nH]1` [Example NN, 2S-amino-6-[(1-iminoethyl)amino]-N-(1H-tetrazol-5-yl)hexanamide, hydrate, dihydrochloride] the pIC50 [1] was 2.62, the “i-NOS inhibitory potency compared with NIL amide or NIL dimethylamide” value (i-NOS) was “more potent i-NOS inhibitor” and the “effect on haematology or blood biochemistry” value [2] was “no effect”. The “effects on heart rate, blood pressure and FEV1” value [2] was “no apparent effects”, the tolerability [2, 4] was “well tolerated” and the “inhibition of exhaled NO in asthma” value ([3]; 200 mg single oral dose) was 95%. For the same molecule, the “residual exhaled NO” value [3, 4] was < 1 ppb, the “change in exhaled NO” value ([3]; single oral dose 20 mg or 200 mg, healthy volunteers and asthmatics, 72 hour assessment) was “rapid reduction in exhaled NO” and the “duration of the decrease in exhaled breath NO” value ([3]; single oral dose, healthy volunteers and asthmatics) was 3 days.
